In one assay the test system is mice. The assay is described as follows: Tail flick test (TFT), analgesia and morphine antagonism in mice. In kind it is in vivo, CD-1 mice. The method, then:
Animal procedures were conducted under protocols approved by the Animal Use and Care Committee, NIEHS, an AALAC accredited facility. Tail flick test (TFT) used a radiant heat source on the tail of Fisher 344 rats or CD-1 mice (52). The response was standardized by the subcutaneous (sc) injection of 5 mg morphine sulfate/kilogram (Kg) body weight or 0.1-0.25 mg morphine/Kg body weight by iv injection; peptides were injected in 100 μL volume in sterile saline. […] Intrathecal injection of peptides in mice used the method of Hylden and Wilcox (53). A base-line and cut-off 10 sec were determined in the TFT with naive and morphine-dosed animals, respectively,to prevent damage to the tail. 1 μg to 10 mg per kilogram of animal was used for iv, icv or sc; higher doses in the mg range were used for sc injection.

The next assay has as its target T1, μ receptor (Rattus norvegicus, UniProt P33535).
T1 construct: Rat membrane synaptosome preparations (P2 fraction) were prepared as detailed previously; from tissue; host or cells: rat synaptosomal membranes (P2 fraction)
The experiment in a line: μ receptor binding, rat membrane synaptosomes, [3H]DAGO. The settings on record: rat synaptosomes (P2), mean ± SEM. On the procedure: (§1) Rat membrane synaptosome preparations (P2 fraction) were prepared as detailed previously, which included a preincubation step to reduce the presence of endogenous ligands and binding of G proteins (33,40). […] Samples were rapidly filtered through wetted glass fiber filters and thoroughly washed with 6 mL (3×2 mL) ice-cold 50 mM Tris-HCl, pH 7.5, containing 0.01-0.1% chicken egg albumin or bovine serum albumin. […] The filters were dried at 70° C. and the radioactivity determined after an overnight incubation period in CytoScint to maximize the radioactivity detected and reduce variability between samples. The IC50 values were converted to affinity constants (Ki) according to Cheng and Prusoff (48).

The next assay has as its target δ receptors (Mus musculus, UniProt P32300). On the procedure:
The in vitro pharmacological assays were undertaken using published methods (32) based on the organ bath technique of Kosterlitz and Watt (50). For μ receptors, a 2-3 cm segment of guinea-pig ileum (GPI) mounted in a 20 mL organ bath and for δ receptors, a single mouse vas deferens (MVD) was obtained from a mature animal.

The target in a further assay is T2, δ receptor (Rattus norvegicus, UniProt P33533).
T2 construct: Rat membrane synaptosome preparations (P2 fraction) were prepared as detailed previously; from tissue; host or cells: rat synaptosomal membranes (P2 fraction)
The assay is described as follows: Multi-site (one- vs two-site) δ receptor binding analysis. The method, then:
as §1
Multi-site binding analyses, based on stringent statistical methods, were performed as described in Bryant et al. (41) and Attila et al. (49). Receptor assays were conducted in triplicate with 25-35 graded concentrations of peptide; the resulting curves were both individually assessed and combined from several distinct assays, and analyzed using Prism™ (v. 1.02, GraphPad, San Diego, Calif.).

Entries after “also recorded” stand apart in the source; their conditions may differ. Non-standard residues stand in square brackets, D forms with d. Residues, ends and D or L forms follow the SMILES beside them. Dmt = Cc1cc(O)cc(C)c1C[C@H](N)C(=O)O; Tic = O=C(O)[C@@H]1Cc2ccccc2CN1

δ receptors, sequence (P32300 whole entry): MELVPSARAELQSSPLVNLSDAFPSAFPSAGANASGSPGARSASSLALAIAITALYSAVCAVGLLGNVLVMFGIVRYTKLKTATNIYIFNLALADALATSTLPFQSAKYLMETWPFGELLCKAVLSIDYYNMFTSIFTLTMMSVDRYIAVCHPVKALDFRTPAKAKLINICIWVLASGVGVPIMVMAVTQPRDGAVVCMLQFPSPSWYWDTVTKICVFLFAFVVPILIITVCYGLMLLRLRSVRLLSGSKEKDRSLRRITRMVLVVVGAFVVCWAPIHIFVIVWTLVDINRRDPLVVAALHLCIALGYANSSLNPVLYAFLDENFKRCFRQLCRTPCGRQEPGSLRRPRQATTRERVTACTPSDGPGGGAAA
T2 sequence (P33533 whole entry): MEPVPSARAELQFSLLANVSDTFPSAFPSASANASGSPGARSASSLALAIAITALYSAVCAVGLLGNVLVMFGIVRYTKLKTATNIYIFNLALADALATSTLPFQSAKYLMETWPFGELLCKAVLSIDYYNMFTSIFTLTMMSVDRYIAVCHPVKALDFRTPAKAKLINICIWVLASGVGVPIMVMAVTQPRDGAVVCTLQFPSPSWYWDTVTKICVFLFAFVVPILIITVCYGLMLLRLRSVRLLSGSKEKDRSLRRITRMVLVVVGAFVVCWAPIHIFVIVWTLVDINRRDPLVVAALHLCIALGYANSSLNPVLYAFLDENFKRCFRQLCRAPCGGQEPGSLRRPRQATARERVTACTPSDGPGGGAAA
T1 sequence (P33535 whole entry): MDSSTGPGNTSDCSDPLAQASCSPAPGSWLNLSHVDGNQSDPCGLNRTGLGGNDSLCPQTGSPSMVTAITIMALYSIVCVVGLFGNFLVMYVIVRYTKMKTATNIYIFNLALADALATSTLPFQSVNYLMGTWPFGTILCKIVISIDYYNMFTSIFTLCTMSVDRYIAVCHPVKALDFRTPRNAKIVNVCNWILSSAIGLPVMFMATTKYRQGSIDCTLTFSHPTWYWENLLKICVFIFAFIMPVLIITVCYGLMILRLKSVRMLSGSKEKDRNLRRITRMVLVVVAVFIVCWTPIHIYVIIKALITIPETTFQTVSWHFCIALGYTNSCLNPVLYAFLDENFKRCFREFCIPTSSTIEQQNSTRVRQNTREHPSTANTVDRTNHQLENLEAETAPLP

Consider `Cc1cc(O)cc(C)c1C[C@H](N)C(=O)N1Cc2ccccc2C[C@H]1C(=O)O` [Peptide 1, Dmt-Tic-OH] (H-[Dmt]-[Tic]-OH; N-terminus assumed), for which the “analgesia in tail flick test” value in the assay with mice (iv, 100 ug/mouse where stated) was “no demonstratable analgesia; also recorded: no demonstrable analgesia”. Besides, the “block of the effect of morphine in tail flick test” value in the assay with mice (morphine injected iv (0.25 mg/kg), peptide 100 ug/mouse iv) is on record as “completely blocked”. The compound also showed a Ki at μ receptor of 3320 nM. Besides, at δ receptors, the Kb was 6.31 nM. Besides, on δ receptors (concentration equivalent of pA2, against deltorphin C), the “MVD” value is 5.7 nM. In addition, the “antagonist properties in MVD bioassay” value on δ receptors (in vitro mouse vas deferens) is “antagonist properties”. For the same compound, the “δ receptor binding model fitted” value on δ receptor (one-site vs two-site) is on record as “one-site binding model”. Further, the Percent low-affinity sites at δ receptor (two-site δ receptor fit) turned out to be 30.7 ± 91.5%.

As usually defined, the Ki is a measure of affinity in units of concentration, obtained from inhibition or displacement.

The record behind these values is patent US5780589A, “Ultraselective opioidmimetic peptides and pharmacological and therapeutic uses thereof” (The United States of America as represented by the …, priority 1994, dated 1998).
